# Results published in US20230167088A1, “1-PYRAZINYLPYRAZOLYL-3-OXYALKYL ACIDS AND THEIR DERIVATIVES, AND THEIR USE FOR CONTROL OF UNDESIRED PLANT GROWTH” (BAYER AKTIENGESELLSCHAFT, priority 2020, published 2023).
# Assays:
# [1] = test system: POAAN; experiment: Herbicidal post-emergence action 1b (twin sowing, 1280 g/ha); format: in vivo, Poa annua; conditions: dosage 1280 g/ha, visual rating about 3 weeks after treatment
# Procedure: (§1) [table] b) Seeds of mono- and dicotyledonous weed plants are placed in plastic pots in sandy loam soil (twin sowing with one species each of mono- or dicotyledonous weed plants per pot), covered with soil and cultivated in a greenhouse under controlled growth conditions. 2 to 3 weeks after sowing, the test plants are treated at the one-leaf stage. The compounds of the invention, formulated in the form of wettable powders (WP) or as emulsion concentrates (EC), are applied to the green parts of the plants as aqueous suspension or emulsion with addition of 0.5% additive at a water application rate equivalent to 600 litres per hectare. After the test plants have been kept in the greenhouse under optimum growth conditions for about 3 weeks, the activity of the preparations is rated visually in comparison to untreated controls. For example, 100% activity=the plants have died, 0% activity=like control plants. Tables A16 to A21 below show the effects of selected compounds of the general formula (I) according to Tables 1 and 2 on various harmful plants and at an application rate corresponding to 1280 g/ha, which were obtained by the experimental procedure mentioned above.
# [2] = test system: POAAN; experiment: Herbicidal pre-emergence action 2b (doubly sown, 1280 g/ha); format: in vivo, Poa annua; conditions: doubly sown pots, dosage 1280 g/ha, visual scoring after about 3 weeks
# From the text: (§2) [table] b) Seeds of mono- and dicotyledonous weed plants are placed in plastic pots in sandy loam soil (doubly sown with one species each of mono- or dicotyledonous weed plants per pot) and covered with soil. The compounds of the invention, formulated in the form of wettable powders (WP) or as emulsion concentrates (EC), are then applied onto the surface of the covering soil as aqueous suspension or emulsion with addition of 0.5% additive at a water application rate equivalent to 600 litres per hectare. After the treatment, the pots are placed in a greenhouse and kept under good growth conditions for the trial plants. After about 3 weeks, the effect of the preparations is scored visually in comparison with untreated controls as percentages. For example, 100% activity=the plants have died, 0% activity=like control plants. Tables B16 to B21 below show the effects of selected compounds of the general formula (I) according to Tables 1 and 2 on various harmful plants and at an application rate corresponding to 1280 g/ha, which were obtained by the experimental procedure mentioned above.
# [3] = test system: AMARE; experiment: as above; format: in vivo, Amaranthus retroflexus; conditions: doubly sown pots, dosage 1280 g/ha, visual scoring after about 3 weeks
# From the text: as §2
# [4] = test system: STEME; experiment: Herbicidal post-emergence action 1b (twin sowing, 1280 g/ha); format: in vivo, Stellaria media; conditions: dosage 1280 g/ha, visual rating about 3 weeks after treatment
# Procedure: as §1
# [5] = test system: DIGSA; experiment: Herbicidal pre-emergence action 2b (doubly sown, 1280 g/ha); format: in vivo, Digitaria sanguinalis; conditions: doubly sown pots, dosage 1280 g/ha, visual scoring after about 3 weeks
# From the text: as §2
# [6] = test system: MATIN; experiment: Herbicidal post-emergence action 1b (twin sowing, 1280 g/ha); format: in vivo, Matricaria inodora; conditions: dosage 1280 g/ha, visual rating about 3 weeks after treatment
# Procedure: as §1
# [7] = test system: MATIN; experiment: Herbicidal pre-emergence action 2b (doubly sown, 1280 g/ha); format: in vivo, Matricaria inodora; conditions: doubly sown pots, dosage 1280 g/ha, visual scoring after about 3 weeks
# From the text: as §2
# [8] = test system: STEME; experiment: as above; format: in vivo, Stellaria media; conditions: doubly sown pots, dosage 1280 g/ha, visual scoring after about 3 weeks
# From the text: as §2
# [9] = test system: LOLRI; experiment: Herbicidal pre-emergence action 2a (greenhouse pots, visual scoring); format: in vivo, Lolium rigidum; conditions: dosage 320 g/ha, visual scoring after about 3 weeks vs untreated controls
# From the text: (§3) [table] a) Seeds of monocotyledonous and dicotyledonous weed plants and crop plants are placed in plastic or organic plant pots and covered with soil. The compounds of the invention, formulated in the form of wettable powders (WP) or as emulsion concentrates (EC), are then applied onto the surface of the covering soil as aqueous suspension or emulsion with addition of 0.5% additive at a water application rate of 600 1/ha (converted). After the treatment, the pots are placed in a greenhouse and kept under good growth conditions for the trial plants. After about 3 weeks, the effect of the preparations is scored visually in comparison with untreated controls as percentages. For example, 100% activity=the plants have died, 0% activity=like control plants. Tables B1 to B15 below show the effects of selected compounds of the general formula (I) according to Tables 1 and 2 on various harmful plants and an application rate corresponding to 320 g/ha and/or 80 g/ha, which were obtained by the experimental procedure mentioned above.
# [10] = test system: MATIN; experiment: Herbicidal post-emergence action 1a (greenhouse pots, visual rating); format: in vivo, Matricaria inodora; conditions: dosage 320 g/ha, visual rating about 3 weeks after treatment
# Procedure: (§4) [table] a) Seeds of monocotyledonous and dicotyledonous weeds and crop plants are placed in sandy loam in plastic or organic plant pots, covered with soil and cultivated in a greenhouse under controlled growth conditions. 2 to 3 weeks after sowing, the test plants are treated at the one-leaf stage. The compounds of the invention, formulated in the form of wettable powders (WP) or as emulsion concentrates (EC), are then sprayed onto the green parts of the plants as aqueous suspension or emulsion with addition of 0.5% additive at a water application rate of 600 1/ha (converted). After the test plants have been kept in the greenhouse under optimum growth conditions for about 3 weeks, the activity of the preparations is rated visually in comparison to untreated controls. For example, 100% activity=the plants have died, 0% activity=like control plants. Tables A1 to A15 below show the effects of selected compounds of the general formula (I) according to Tables 1 and 2 on various harmful plants and an application rate corresponding to 320 g/ha and/or 80 g/ha, which were obtained by the experimental procedure mentioned above.
# [11] = test system: VERPE; experiment: as above; format: in vivo, Veronica persica; conditions: visual rating about 3 weeks after treatment
# Procedure: as §4
# [12] = test system: LOLRI; experiment: as above; format: in vivo, Lolium rigidum; conditions: Dosage 320 g/ha; rated visually about 3 weeks after treatment; 100% = plants have died, 0% = like control plants
# Procedure: as §4
# [13] = test system: ECHCG; experiment: as above; format: in vivo, Echinochloa crus-galli; conditions: Dosage 320 g/ha; rated visually about 3 weeks after treatment; 100% = plants have died, 0% = like control plants
# Procedure: as §4
# [14] = test system: ABUTH; experiment: as above; format: in vivo, Abutilon theophrasti; conditions: visual rating about 3 weeks after treatment
# Procedure: as §4
# [15] = test system: VERPE; experiment: Herbicidal pre-emergence action 2a (greenhouse pots, visual scoring); format: in vivo, Veronica persica; conditions: dosage 320 g/ha, visual scoring after about 3 weeks vs untreated controls
# From the text: as §3
# [16] = test system: AVEFA; experiment: Herbicidal post-emergence action 1a (greenhouse pots, visual rating); format: in vivo, Avena fatua; conditions: rated visually about 3 weeks after treatment, 100% = plants have died, 0% = like control plants
# Procedure: as §4
# [17] = test system: SETVI; experiment: as above; format: in vivo, Setaria viridis; conditions: Dosage 320 g/ha; rated visually about 3 weeks after treatment; 100% = plants have died, 0% = like control plants
# Procedure: as §4
# [18] = test system: POLCO; experiment: as above; format: in vivo, Polygonum convolvulus; conditions: visual rating about 3 weeks after treatment
# Procedure: as §4
# [19] = test system: SETVI; experiment: Herbicidal pre-emergence action 2a (greenhouse pots, visual scoring); format: in vivo, Setaria viridis; conditions: dosage 320 g/ha, visual scoring after about 3 weeks vs untreated controls
# From the text: as §3
# [20] = test system: ALOMY; experiment: as above; format: in vivo, Alopecurus myosuroides; conditions: dosage 320 g/ha, visual scoring after about 3 weeks
# From the text: as §3
# [21] = test system: AMARE; experiment: Herbicidal post-emergence action 1a (greenhouse pots, visual rating); format: in vivo, Amaranthus retroflexus; conditions: visual rating about 3 weeks after treatment
# Procedure: as §4
# [22] = test system: AMARE; experiment: Herbicidal pre-emergence action 2a (greenhouse pots, visual scoring); format: in vivo, Amaranthus retroflexus; conditions: dosage 320 g/ha, visual scoring after about 3 weeks vs untreated controls
# From the text: as §3
# [23] = test system: ALOMY; experiment: Herbicidal post-emergence action 1a (greenhouse pots, visual rating); format: in vivo, Alopecurus myosuroides; conditions: rated visually about 3 weeks after treatment, 100% = plants have died, 0% = like control plants
# Procedure: as §4
# [24] = test system: AVEFA; experiment: Herbicidal pre-emergence action 2a (greenhouse pots, visual scoring); format: in vivo, Avena fatua; conditions: dosage 320 g/ha, visual scoring after about 3 weeks
# From the text: as §3
# [25] = test system: VIOTR; experiment: as above; format: in vivo, Viola tricolor; conditions: dosage 320 g/ha, visual scoring after about 3 weeks vs untreated controls
# From the text: as §3
# [26] = test system: POLCO; experiment: as above; format: in vivo, Polygonum convolvulus; conditions: dosage 320 g/ha, visual scoring after about 3 weeks vs untreated controls
# From the text: as §3
# [27] = test system: MATIN; experiment: as above; format: in vivo, Matricaria inodora; conditions: dosage 320 g/ha, visual scoring after about 3 weeks vs untreated controls
# From the text: as §3
# [28] = test system: VIOTR; experiment: Herbicidal post-emergence action 1a (greenhouse pots, visual rating); format: in vivo, Viola tricolor; conditions: dosage 320 g/ha, visual rating about 3 weeks after treatment
# Procedure: as §4
# [29] = test system: ECHCG; experiment: Herbicidal pre-emergence action 2b (doubly sown, 1280 g/ha); format: in vivo, Echinochloa crus-galli; conditions: doubly sown pots, dosage 1280 g/ha, visual scoring after about 3 weeks
# From the text: as §2
SMILES,Post-emergence action at 1280 g/ha against POAAN in % [1],Pre-emergence action at 1280 g/ha against POAAN in % [2],Pre-emergence action at 1280 g/ha against AMARE in % [3],Post-emergence action at 1280 g/ha against STEME in % [4],Pre-emergence action at 1280 g/ha against DIGSA in % [5],Pre-emergence action at 1280 g/ha against MATIN in % [7],Pre-emergence action against LOLRI in % [9],Pre-emergence action against VERPE in % [15],Pre-emergence action against ALOMY in % [20],Post-emergence action against AMARE in % ([21]; dosage 320 g/ha),Pre-emergence action against AMARE in % [22],Post-emergence action against ALOMY in % ([23]; Dosage 320 g/ha),Pre-emergence action against VIOTR in % [25],also measured
CCOC(=O)COc1nn(-c2cnccn2)c(-c2ccc(F)nc2)c1[N+](=O)[O-] [Example I-50],90%,100%,100%,90%,100%,90%,–,–,–,–,–,–,–,Post-emergence action at 1280 g/ha against MATIN in % [6]: 90%; Pre-emergence action at 1280 g/ha against STEME in % [8]: 90%
COC(=O)[C@@H](C)Oc1nn(-c2cnccn2)c(-c2ccc(F)nc2)c1I [Example I-89],–,–,–,–,–,–,100%,100%,100%,90%,100%,100%,–,Post-emergence action against MATIN in % [10]: 80%; Post-emergence action against VERPE in % ([11]; dosage 80 g/ha): 80%; Post-emergence action against VERPE in % ([11]; dosage 320 g/ha): 90%; Post-emergence action against LOLRI in % [12]: 100%; Post-emergence action against ECHCG in % [13]: 80%; Post-emergence action against ABUTH in % ([14]; dosage 80 g/ha): 90%; Post-emergence action against ABUTH in % ([14]; dosage 320 g/ha): 90%; Post-emergence action against AVEFA in % ([16]; Dosage 80 g/ha): 90%; Post-emergence action against AVEFA in % ([16]; Dosage 320 g/ha): 100%; Post-emergence action against SETVI in % [17]: 90%; Post-emergence action against POLCO in % ([18]; dosage 80 g/ha): 90%; Post-emergence action against POLCO in % ([18]; dosage 320 g/ha): 90%; Pre-emergence action against SETVI in % [19]: 100%; Post-emergence action against AMARE in % ([21]; dosage 80 g/ha): 90%; Post-emergence action against ALOMY in % ([23]; Dosage 80 g/ha): 80%
C[C@@H](Oc1nn(-c2nccnc2Cl)c(-c2ccc(F)nc2)c1Br)C(=O)O [Example I-75],–,–,–,–,–,–,100%,–,100%,–,90%,–,80%,Pre-emergence action against AVEFA in % [24]: 90%; Pre-emergence action against POLCO in % [26]: 80%
COC(=O)COc1nn(-c2nccnc2F)c(-c2ccc(F)nc2)c1Br [Example I-77],–,–,–,–,–,–,–,–,–,–,80%,–,80%,Pre-emergence action against MATIN in % [27]: 80%
COC(=O)[C@@H](C)Oc1nn(-c2cnccn2)c(-c2ccc(F)nc2)c1C#N [Example I-25],90%,100%,100%,90%,100%,90%,–,90%,80%,80%,–,80%,90%,Post-emergence action against VIOTR in % [28]: 90%; Pre-emergence action at 1280 g/ha against ECHCG in % [29]: 90%
